Results: patent US20230355540A1, “STROKE TREATMENT” (Oxford University Innovation Limited, priority 2020, published 2023)

Columns and labels:
[1] = test system: Spontaneously Hypertensive Rats, middle cerebral artery occlusion (MCAo/stroke); assay: Collateral and control hemisphere perfusion by laser speckle contrast imaging after MCAo (Examples 4 and 5); assay type: in vivo, rat; conditions: from 25 minutes after MCAo for 45 minutes
[2] = Mean arterial pressure through femoral artery catheter during infusion after MCAo (Examples 4 and 5); assay type: in vivo, rat; conditions: from 25 minutes after MCAo for 45 minutes
Description: Animals were randomized to receive intravenous infusion of saline (control, 0.3 ml/hr n=6) or infusion of free nitroglycerin (free-GTN, 0.25 μg/μl in saline, at 300 μl/h=4 μg/kg/min, n=6), commencing 25 minutes after MCAo.
Animals received intravenous infusion of free nitroglycerin (free-GTN, 2.5 μg/μl in saline, at 300 μl/h=40 μg/kg/min, n=4), commencing 25 minutes after MCAo. […] Vehicle control (saline) was the same control group used for 4 μg/kg/min studies (n=6).

[3] = test system: Spontaneously Hypertensive Rats, middle cerebral artery occlusion (MCAo/stroke); conditions: FIG. 3
Description: Animal experiments were performed on male Spontaneously Hypertensive Rats (SHRs) weighing 300-350 g (Harlan, Bicester, UK). All animals were housed in a 12 h light/dark cycle and had ad libitum access to food and water prior to experiments.
Rats were anesthetized with 5% isoflurane in O2/N2 (1:3) and maintained with 1% to 2% isoflurane. Core temperature was maintained at 37° C. by a thermocouple rectal probe and warming plate (Harvard Apparatus, UK). Incision sites were shaved, cleaned, and injected subcutaneously with 2 mg/kg 0.05% Bupivacaine (Aspen, UK). A femoral arterial line was used for continuous arterial pressure monitoring.
The filament was advanced into the right external carotid artery stump and up the internal carotid artery to occlude the origin of the right MCA.
Laser Doppler flowmetry (LDF) (Oxford Optronix, Oxford, UK) was used to measure changes in cerebral blood flow (CBF) in both the MCA and collateral arterial territories using dual probes. The animal's head was secured with ear bars in a stereotaxic frame. […]
Prior to MCAo, the femoral vein was cannulated with 2-French silicon tubing. […] Collateral perfusion was measured as a change from pre-injection baseline.
Prior to MCAo, the femoral vein was cannulated with 2-French silicon tubing. […] Collateral perfusion was measured as a % change from pre-injection baseline.

[4] = test system: patients suffering ultra-acute stroke; conditions: transdermal (i.e. systemic) delivery; cited from earlier work
[5] = i.v. infusion 4 μg/kg/min nitroglycerin

O=[N+]([O-])OCC(CO[N+](=O)[O-])O[N+](=O)[O-] [nitroglycerin]
perfusion in the corresponding region of the control/contralateral hemisphere [1, 5]: no significant effect
collateral blood perfusion (% change from pre-injection baseline) ([1]; i.v. infusion 4 μg/kg/min nitroglycerin, stroke hemisphere): did not change
collateral blood perfusion (% change from pre-injection baseline) ([1]; i.v. infusion 40 μg/kg/min, FIG. 14): did not change
perfusion in the corresponding region of the control/contralateral hemisphere ([1]; i.v. infusion 40 μg/kg/min, FIG. 15): no significant effect
blood pressure (mean arterial pressure) [2, 5]: dropped
blood pressure (mean arterial pressure) ([2]; i.v. infusion 40 μg/kg/min, FIG. 16): significantly dropped
peak collateral perfusion ([3]; free nitroglycerin not delivered using a SA-NT, Example 3b): only a modest increase
collateral perfusion with increasing doses ([3]; one SHR, i.v. bolus over 1 minute of 12.5, 25, 50 and 100 m, from 30 minutes after MCAo): no additional increase
functional outcome [4]: did not improve
